Data published in US10556936B2, “Immunogenic proteins and fragments thereof from allergenic mites” (ALK-ABELLÓ A/S, priority 2016, dated 2020).

Test system: HDM-specific T cells expanded from PBMCs of HDM-allergic individuals
Test: T cell reactivity of peptides: IFN/IL-5 ELISPOT on in vitro expanded HDM-specific T cells
Format: cell-based, human
Settings: for SFC/donor: individual peptides 10 μg/mL; for % responder: percentage of donors that produced a response against the peptide, 10 μg/mL
Experimental: Each sequence of an “L” cluster was aligned separately using the MEGA software tool with ClustalW. Fifteen-mer peptides overlapping by 10 amino acids were generated and the last 15-mer peptide was added when the sequence length was not divisible by 5, 14,783 unique peptides remained.
HLA class II binding predictions optimized for global coverage were performed for the seven class II alleles (HLA-DRB1*03:01, HLA-DRB1*07:01, HLA-DRB1*15:01, HLA-DRB3*01:01, HLA-DRB3*02:02, HLA-DRB4*01:01 and HLA-DRB5*01:01) using the standalone version of the IEDB class II binding prediction tool. The median consensus percentile rank was estimated from the consensus percentile ranks for the seven alleles. Further, peptides with more than ten overlapping amino acids, which appeared because several occurrences of some sequence regions were repeated multiple times in the same sequence, were eliminated (e.g. “[…]” was repeated seven times in one sequence.) Variant peptides were also removed, retaining the better peptide based on the median consensus percentile rank and conservation among the sequences within its respective cluster. Peptides with median consensus percentile rank ≤10.0 and conserved in ≥35% of sequences in the same cluster were finally selected, also including additional selected peptides chosen to maximize DRB1 allele coverage, for a grand total of 2,589 peptides.
Peptides were purchased from Mimotopes (Clayton, Victoria, Australia) or A and A (San Diego, Calif.) as crude material on a small (1-mg) scale. Individual peptides were resuspended in DMSO at a final concentration of 40 mg/mL. Peptide “megapools” of 30-65 peptides/pool were generated. Following lyophilization, each pool was reconstituted in DMSO so that each peptide was present at a concentration of 4 mg/mL. To facilitate deconvolution of positive megapools, each megapool was further broken down in 2-6 “mesopools” (259 mesopools in total), each containing 8-14 peptides. Each mesopool was then deconvoluted to identify individual positive peptides. To avoid dimerization and polymerization of peptides by intra- and intermolecular disulfide bond formation between cysteine residues, this amino acid were in some instances substituted by a serine residue in the peptides. Such peptides are herein marked with an asterisk (*).
PBMCs from European HDM-allergic individuals were recruited in the Copenhagen region (defined by clinical history of allergy to house dust mite and specific IgE to group 1 and group 2 major allergens from Der p and/or Der f and with measured specific IgE (CAP) >0.7 kU/L towards Der p/f 1 or Der p/f 2. In addition, PBMCs from 10 US HDM-allergic individuals were recruited in San Diego (defined by Der p extract IgE titers greater than 0.35 kUA/L). PBMCs were isolated from whole blood by density gradient centrifugation according to manufacturers' instructions (Ficoll-Hypaque, Amersham Biosciences, Uppsala, Sweden). Der p- and Der f-specific extract IgE titers were determined using the ImmunoCAP system (Thermo Fisher, Uppsala, Sweden). In a separate series of experiments, pooled plasma from 10 European and 10 American HDM atopic individuals from the San Diego region, respectively, was utilized to run 2D immunoblots to elucidate IgE and IgG reactivity towards the proteins, which had at least one peptide with positive T cell response.
HDM-specific T cells were expanded in vitro. Briefly, PBMCs from HDM-allergic individuals were stimulated with HDM extract (5 μg/mL) and expanded over 14-17 days with IL-2 (added every 3 days). Cells were harvested on day 14, restimulated with HDM extract (5 μg/mL), individual peptides (10 μg/mL) or peptide pools (5 μg/mL) and screened for […]/IL-5-production by ELISPOT. Criteria for positivity were 100 or 20 spot forming cells (SFCs) per 10^6 PBMCs for peptide pools or single peptides, respectively, p<0.05, and a stimulation index >2.

In the case of “LQHFNNAIKQLNTED (Immunogenic fragment) [Peptide 189, fragment of A0023 Der f]”, the SFC/donor is reported as 24 SFC/donor and the “% responder” value is reported as 10%.
In the case of “105 (SLSMAMATNAALTKL; Immunogenic fragment) [compound 105]”, the SFC/donor is reported as 9 SFC/donor and the “% responder” value is reported as 5%.
In the case of “84 (IHQLNDQVLRLKFID; Immunogenic fragment) [compound 84]”, the SFC/donor is reported as 3 SFC/donor and the “% responder” value is reported as 5%.
In the case of “111 (SSMRWTIPSILNFNM; Immunogenic fragment) [compound 111]”, the SFC/donor is reported as 19 SFC/donor and the “% responder” value is reported as 10%.
With “117 (IRAARSSLQYRYRFL; Immunogenic fragment) [compound 117]” the SFC/donor was 20 SFC/donor and the “% responder” value was 20%.
With “47 (ELLKKKGIIPGIKVD; Immunogenic fragment) [compound 47]” the SFC/donor was 12 SFC/donor and the “% responder” value was 5%.
In the case of “137 (HDNTELMKTKDFLLI; Immunogenic fragment) [compound 137]”, the SFC/donor is reported as 41 SFC/donor and the “% responder” value is reported as 10%.
In the case of “97 (NATEYWMDMFAEYHK; Immunogenic fragment) [compound 97]”, the SFC/donor is reported as 227 SFC/donor and the “% responder” value is reported as 25%.
In the case of “DWRNLYPRKYAFALP (Immunogenic fragment) [Peptide 186, fragment of A0023 Der f]”, the SFC/donor is reported as 64 SFC/donor and the “% responder” value is reported as 5%.
“87 (QSIFDINLAYMVYSD; Immunogenic fragment) [compound 87]” was tested, and the SFC/donor was 69 SFC/donor and the “% responder” value was 20%.
In the case of “121 (DIETQFMWGDSMLIA; Immunogenic fragment) [compound 121]”, the SFC/donor is reported as 8 SFC/donor and the “% responder” value is reported as 5%.
“91 (GVFLFNSNAMDILTQ; Immunogenic fragment) [compound 91]” was tested, and the SFC/donor was 9 SFC/donor and the “% responder” value was 5%.
For “48 (EQYISGVILFDETVY; Immunogenic fragment) [compound 48]”, the SFC/donor was 326 SFC/donor and the “% responder” value was 20%.
“143 (FNTAVLFDRQGKLLG; Immunogenic fragment) [compound 143]” was tested, and the SFC/donor was 11 SFC/donor and the “% responder” value was 10%.
For “45 (IMRILCCKSRKVAPC; Immunogenic fragment) [compound 45]”, the SFC/donor was 4 SFC/donor and the “% responder” value was 5%.
With “82 (YIGYKIEKHSKNLIQ; Immunogenic fragment) [compound 82]” the SFC/donor was 4 SFC/donor and the “% responder” value was 5%.
In the case of “86 (RLYSVELDGSHLIVR; Immunogenic fragment) [compound 86]”, the SFC/donor is reported as 3 SFC/donor and the “% responder” value is reported as 5%.
For “145 (PPKPELLVIDTELGR; Immunogenic fragment) [compound 145]”, the SFC/donor was 228 SFC/donor and the “% responder” value was 30%.
With “125 (FFRSGSIIPIQGPQN; Immunogenic fragment) [compound 125]” the SFC/donor was 5 SFC/donor and the “% responder” value was 5%.
With “100 (TLRHKTLCMTARHYN; Immunogenic fragment) [compound 100]” the SFC/donor was 12 SFC/donor and the “% responder” value was 10%.
In the case of “134 (TNNMLIIQTKLSIFN; Immunogenic fragment) [compound 134]”, the SFC/donor is reported as 4 SFC/donor and the “% responder” value is reported as 5%.
“152 (LRGAFSESTAVYPSA; Immunogenic fragment) [compound 152]” was tested, and the SFC/donor was 5 SFC/donor and the “% responder” value was 5%.
In the case of “115 (AFYSFVRNHNTDNAI; Immunogenic fragment) [compound 115]”, the SFC/donor is reported as 15 SFC/donor and the “% responder” value is reported as 20%.
With “142 (DKKFLFNTAVLFDRQ; Immunogenic fragment) [compound 142]” the SFC/donor was 22 SFC/donor and the “% responder” value was 10%.
For “HKPIILGTLRNGATN (Immunogenic fragment) [Peptide 182, fragment of A0023 Der f]”, the SFC/donor was 175 SFC/donor and the “% responder” value was 10%.
With “127 (SQHLGYQTNQSIIIL; Immunogenic fragment) [compound 127]” the SFC/donor was 7 SFC/donor and the “% responder” value was 10%.
For “GYAFIMESSSAEHEI (Immunogenic fragment) [Peptide 184, fragment of A0023 Der f]”, the SFC/donor was 16 SFC/donor and the “% responder” value was 10%.
For “133 (QFIYTTNNMLIIQTK; Immunogenic fragment) [compound 133]”, the SFC/donor was 47 SFC/donor and the “% responder” value was 5%.
In the case of “99 (AEYHKTIAFDGAWLD; Immunogenic fragment) [compound 99]”, the SFC/donor is reported as 24 SFC/donor and the “% responder” value is reported as 15%.
For “77 (ANQPISSLKNRLHYR; Immunogenic fragment) [compound 77]”, the SFC/donor was 4 SFC/donor and the “% responder” value was 5%.
“68 (DGHGIVIRGRHLLLL; Immunogenic fragment) [compound 68]” was tested, and the SFC/donor was 24 SFC/donor and the “% responder” value was 5%.
“94 (FTNLNTTYTRNRAVG; Immunogenic fragment) [compound 94]” was tested, and the SFC/donor was 94 SFC/donor and the “% responder” value was 15%.
With “58 (ITRLREAMGVMQHHD; Immunogenic fragment) [compound 58]” the SFC/donor was 8 SFC/donor and the “% responder” value was 5%.
“60 (HVAFNYAKMLDSAML; Immunogenic fragment) [compound 60]” was tested, and the SFC/donor was 75 SFC/donor and the “% responder” value was 5%.
“139 (ELNFKVYEDAAALAK; Immunogenic fragment) [compound 139]” was tested, and the SFC/donor was 16 SFC/donor and the “% responder” value was 10%.
For “140 (EDGLIYNIASREKAD; Immunogenic fragment) [compound 140]”, the SFC/donor was 55 SFC/donor and the “% responder” value was 5%.
In the case of “120 (AHLYTLFYHVHKNGG; Immunogenic fragment) [compound 120]”, the SFC/donor is reported as 8 SFC/donor and the “% responder” value is reported as 5%.
“104 (LHNLYSLSMAMATNA; Immunogenic fragment) [compound 104]” was tested, and the SFC/donor was 29 SFC/donor and the “% responder” value was 10%.
With “146 (LLVIDTELGRLGMQI; Immunogenic fragment) [compound 146]” the SFC/donor was 54 SFC/donor and the “% responder” value was 20%.
“122 (FMWGDSMLIAPILYP; Immunogenic fragment) [compound 122]” was tested, and the SFC/donor was 2 SFC/donor and the “% responder” value was 5%.
“51 (RGIVGEIIRRFEAKG; Immunogenic fragment) [compound 51]” was tested, and the SFC/donor was 5 SFC/donor and the “% responder” value was 5%.
“96 (LPDFIRNVLHKNGQK; Immunogenic fragment) [compound 96]” was tested, and the SFC/donor was 5 SFC/donor and the “% responder” value was 10%.
With “123 (YDDIDYVFVRGGSII; Immunogenic fragment) [compound 123]” the SFC/donor was 149 SFC/donor and the “% responder” value was 30%.
“103 (QLHYNLHNLYSLSMA; Immunogenic fragment) [compound 103]” was tested, and the SFC/donor was 69 SFC/donor and the “% responder” value was 5%.
